Assay results as given in PMC6891286, “Towards the Development of an In vivo Chemical Probe for Cyclin G Associated Kinase (GAK)” (Molecules, 2019).

Columns and labels:
Test in all cases: KINOMEscan
Format in all cases: binding
Details in all cases: 35 at 1 µM; read-out: % inhibition
PIK3CD = molecular target: T1, PIK3CD (Homo sapiens, UniProt O00329)
T1 construct: purchased Eurofins DiscoverX (KINOMEscan)
Method: (§1) KinomeScan Assay on 35 was performed as previously described at EuroFins DiscoverX (Fremont, CA, USA).

HIPK3 = molecular target: T2, HIPK3 (Homo sapiens, UniProt Q9H422)
T2 construct: purchased Eurofins DiscoverX (KINOMEscan)
Method: as §1

[1] = molecular target: T3, ABL1(F317I)-nonphosphorylated (Homo sapiens, UniProt P00519, F317I)
T3 construct: purchased Eurofins DiscoverX (KINOMEscan)
Method: as §1

[2] = molecular target: T4, RSK4(Kin.Dom.1-N-terminal) (Homo sapiens, UniProt Q9UK32)
T4 construct: RSK4(Kin.Dom.1-N-terminal); purchased Eurofins DiscoverX (KINOMEscan)
Method: as §1

PRKD3 = molecular target: T5, PRKD3 (Homo sapiens, UniProt O94806)
T5 construct: purchased Eurofins DiscoverX (KINOMEscan)
Method: as §1

CAMK2G = molecular target: T6, CAMK2G (Homo sapiens, UniProt Q13555)
T6 construct: purchased Eurofins DiscoverX (KINOMEscan)
Method: as §1

PRKCQ = molecular target: T7, PRKCQ (Homo sapiens, UniProt Q04759)
T7 construct: purchased Eurofins DiscoverX (KINOMEscan)
Method: as §1

TAOK3 = molecular target: T8, TAOK3 (Homo sapiens, UniProt Q9H2K8)
T8 construct: purchased Eurofins DiscoverX (KINOMEscan)
Method: as §1

EGFR(G719S) = molecular target: T9, EGFR(G719S) (Homo sapiens, UniProt P00533, G719S)
T9 construct: purchased Eurofins DiscoverX (KINOMEscan)
Method: as §1

TESK1 = molecular target: T10, TESK1 (Homo sapiens, UniProt Q15569)
T10 construct: purchased Eurofins DiscoverX (KINOMEscan)
Method: as §1

MARK1 = molecular target: T11, MARK1 (Homo sapiens, UniProt Q9P0L2)
T11 construct: purchased Eurofins DiscoverX (KINOMEscan)
Method: as §1

PYK2 = molecular target: T12, PYK2 (Homo sapiens, UniProt Q14289)
T12 construct: purchased Eurofins DiscoverX (KINOMEscan)
Method: as §1

MYO3A = molecular target: T13, MYO3A (Homo sapiens, UniProt Q8NEV4)
T13 construct: purchased Eurofins DiscoverX (KINOMEscan)
Method: as §1

RET(V804L) = molecular target: T14, RET(V804L) (Homo sapiens, UniProt P07949, V804L)
T14 construct: purchased Eurofins DiscoverX (KINOMEscan)
Method: as §1

PCTK1 = molecular target: T15, PCTK1 (Homo sapiens, UniProt Q00536)
T15 construct: purchased Eurofins DiscoverX (KINOMEscan)
Method: as §1

FLT3(D835H) = molecular target: T16, FLT3(D835H) (Homo sapiens, UniProt P36888, D835H)
T16 construct: purchased Eurofins DiscoverX (KINOMEscan)
Method: as §1

ULK3 = molecular target: T17, ULK3 (Homo sapiens, UniProt Q6PHR2)
T17 construct: purchased Eurofins DiscoverX (KINOMEscan)
Method: as §1

ALK(C1156Y) = molecular target: T18, ALK(C1156Y) (Homo sapiens, UniProt Q9UM73, C1156Y)
T18 construct: purchased Eurofins DiscoverX (KINOMEscan)
Method: as §1

RIPK4 = molecular target: T19, RIPK4 (Homo sapiens, UniProt P57078)
T19 construct: purchased Eurofins DiscoverX (KINOMEscan)
Method: as §1

PAK4 = molecular target: T20, PAK4 (Homo sapiens, UniProt O96013)
T20 construct: purchased Eurofins DiscoverX (KINOMEscan)
Method: as §1

CSF1R = molecular target: T21, CSF1R (Homo sapiens, UniProt P07333)
T21 construct: purchased Eurofins DiscoverX (KINOMEscan)
Method: as §1

BRSK2 = molecular target: T22, BRSK2 (Homo sapiens, UniProt Q8IWQ3)
T22 construct: purchased Eurofins DiscoverX (KINOMEscan)
Method: as §1

HCK = molecular target: T23, HCK (Homo sapiens, UniProt P08631)
T23 construct: purchased Eurofins DiscoverX (KINOMEscan)
Method: as §1

YANK3 = molecular target: T24, YANK3 (Homo sapiens, UniProt Q86UX6)
T24 construct: purchased EuroFins DiscoverX (Fremont, CA, USA)
Method: as §1

CAMKK1 = molecular target: T25, CAMKK1 (Homo sapiens, UniProt Q8N5S9)
T25 construct: purchased Eurofins DiscoverX (KINOMEscan)
Method: as §1

CDK3 = molecular target: T26, CDK3 (Homo sapiens, UniProt Q00526)
T26 construct: purchased Eurofins DiscoverX (KINOMEscan)
Method: as §1

PIK3CA(Q546K) = molecular target: T27, PIK3CA(Q546K) (Homo sapiens, UniProt P42336, Q546K)
T27 construct: purchased Eurofins DiscoverX (KINOMEscan)
Method: as §1

DDR2 = molecular target: T28, DDR2 (Homo sapiens, UniProt Q16832)
T28 construct: purchased Eurofins DiscoverX (KINOMEscan)
Method: as §1

[3] = molecular target: T29, RSK1(Kin.Dom.2-C-terminal) (Homo sapiens, UniProt Q15418)
T29 construct: RSK1(Kin.Dom.2-C-terminal); purchased Eurofins DiscoverX (KINOMEscan)
Method: as §1

MINK = molecular target: T30, MINK (Homo sapiens, UniProt Q8N4C8)
T30 construct: purchased Eurofins DiscoverX (KINOMEscan)
Method: as §1

LATS1 = molecular target: T31, LATS1 (Homo sapiens, UniProt O95835)
T31 construct: purchased Eurofins DiscoverX (KINOMEscan)
Method: as §1

PIK3CG = molecular target: T32, PIK3CG (Homo sapiens, UniProt P48736)
T32 construct: purchased Eurofins DiscoverX (KINOMEscan)
Method: as §1

NIM1 = molecular target: T33, NIM1 (Homo sapiens, UniProt Q8IY84)
T33 construct: purchased Eurofins DiscoverX (KINOMEscan)
Method: as §1

EPHA3 = molecular target: T34, EPHA3 (Homo sapiens, UniProt P29320)
T34 construct: purchased Eurofins DiscoverX (KINOMEscan)
Method: as §1

YES = molecular target: T35, YES (Homo sapiens, UniProt P07947)
T35 construct: purchased EuroFins DiscoverX (Fremont, CA, USA)
Method: as §1

LATS2 = molecular target: T36, LATS2 (Homo sapiens, UniProt Q9NRM7)
T36 construct: purchased Eurofins DiscoverX (KINOMEscan)
Method: as §1

SYK = molecular target: T37, SYK (Homo sapiens, UniProt P43405)
T37 construct: purchased Eurofins DiscoverX (KINOMEscan)
Method: as §1

[4] = molecular target: T38, TYK2(JH1domain-catalytic) (Homo sapiens, UniProt P29597)
T38 construct: TYK2(JH1domain-catalytic); purchased Eurofins DiscoverX (KINOMEscan)
Method: as §1

MEK1 = molecular target: T39, MEK1 (Homo sapiens, UniProt Q02750)
T39 construct: purchased Eurofins DiscoverX (KINOMEscan)
Method: as §1

ERBB2 = molecular target: T40, ERBB2 (Homo sapiens, UniProt P04626)
T40 construct: purchased Eurofins DiscoverX (KINOMEscan)
Method: as §1

MEK6 = molecular target: T41, MEK6 (Homo sapiens, UniProt P52564)
T41 construct: purchased Eurofins DiscoverX (KINOMEscan)
Method: as §1

T40 sequence (P04626 23-1255): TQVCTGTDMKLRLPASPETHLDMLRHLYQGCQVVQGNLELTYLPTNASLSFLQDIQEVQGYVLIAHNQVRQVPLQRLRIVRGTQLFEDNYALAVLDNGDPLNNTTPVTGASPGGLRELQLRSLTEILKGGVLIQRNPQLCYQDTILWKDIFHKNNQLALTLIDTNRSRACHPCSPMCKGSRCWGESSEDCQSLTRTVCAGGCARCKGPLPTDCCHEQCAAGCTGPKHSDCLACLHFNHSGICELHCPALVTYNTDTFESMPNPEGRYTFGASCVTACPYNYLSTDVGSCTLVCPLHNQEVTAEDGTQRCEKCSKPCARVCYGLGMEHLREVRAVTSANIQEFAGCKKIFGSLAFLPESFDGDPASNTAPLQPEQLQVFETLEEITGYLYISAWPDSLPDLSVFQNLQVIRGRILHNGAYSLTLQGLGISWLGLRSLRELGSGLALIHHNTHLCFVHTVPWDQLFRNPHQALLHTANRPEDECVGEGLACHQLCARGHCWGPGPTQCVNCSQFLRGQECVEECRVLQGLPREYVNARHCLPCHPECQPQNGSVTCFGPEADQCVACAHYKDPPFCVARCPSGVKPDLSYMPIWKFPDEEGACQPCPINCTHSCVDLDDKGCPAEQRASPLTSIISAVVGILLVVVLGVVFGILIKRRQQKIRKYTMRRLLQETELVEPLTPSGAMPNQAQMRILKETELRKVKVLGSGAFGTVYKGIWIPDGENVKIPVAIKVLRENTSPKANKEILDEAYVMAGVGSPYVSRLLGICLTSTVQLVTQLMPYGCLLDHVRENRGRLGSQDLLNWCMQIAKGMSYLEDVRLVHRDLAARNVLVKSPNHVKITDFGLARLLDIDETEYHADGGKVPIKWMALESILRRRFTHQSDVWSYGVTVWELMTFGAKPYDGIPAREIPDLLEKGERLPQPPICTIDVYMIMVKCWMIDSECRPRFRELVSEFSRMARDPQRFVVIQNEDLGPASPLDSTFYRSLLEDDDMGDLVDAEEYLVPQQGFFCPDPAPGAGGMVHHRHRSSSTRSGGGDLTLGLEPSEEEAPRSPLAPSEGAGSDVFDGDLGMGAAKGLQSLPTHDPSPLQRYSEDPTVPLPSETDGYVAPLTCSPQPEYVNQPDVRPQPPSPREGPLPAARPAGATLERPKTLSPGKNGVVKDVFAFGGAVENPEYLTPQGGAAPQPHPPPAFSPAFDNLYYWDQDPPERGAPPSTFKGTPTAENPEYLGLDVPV
T17 sequence (Q6PHR2 whole entry): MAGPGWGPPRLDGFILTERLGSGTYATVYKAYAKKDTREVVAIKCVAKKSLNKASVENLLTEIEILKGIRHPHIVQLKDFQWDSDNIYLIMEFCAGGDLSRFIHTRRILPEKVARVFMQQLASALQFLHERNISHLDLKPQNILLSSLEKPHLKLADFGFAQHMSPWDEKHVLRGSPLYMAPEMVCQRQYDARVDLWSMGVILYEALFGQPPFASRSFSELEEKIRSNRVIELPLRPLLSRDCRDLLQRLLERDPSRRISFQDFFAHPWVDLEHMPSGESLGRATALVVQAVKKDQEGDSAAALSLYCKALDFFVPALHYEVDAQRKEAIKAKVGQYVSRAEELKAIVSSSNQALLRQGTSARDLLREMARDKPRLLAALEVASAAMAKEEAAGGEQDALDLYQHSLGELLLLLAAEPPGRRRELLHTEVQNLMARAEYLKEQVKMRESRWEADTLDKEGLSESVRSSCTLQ
T11 sequence (Q9P0L2 whole entry): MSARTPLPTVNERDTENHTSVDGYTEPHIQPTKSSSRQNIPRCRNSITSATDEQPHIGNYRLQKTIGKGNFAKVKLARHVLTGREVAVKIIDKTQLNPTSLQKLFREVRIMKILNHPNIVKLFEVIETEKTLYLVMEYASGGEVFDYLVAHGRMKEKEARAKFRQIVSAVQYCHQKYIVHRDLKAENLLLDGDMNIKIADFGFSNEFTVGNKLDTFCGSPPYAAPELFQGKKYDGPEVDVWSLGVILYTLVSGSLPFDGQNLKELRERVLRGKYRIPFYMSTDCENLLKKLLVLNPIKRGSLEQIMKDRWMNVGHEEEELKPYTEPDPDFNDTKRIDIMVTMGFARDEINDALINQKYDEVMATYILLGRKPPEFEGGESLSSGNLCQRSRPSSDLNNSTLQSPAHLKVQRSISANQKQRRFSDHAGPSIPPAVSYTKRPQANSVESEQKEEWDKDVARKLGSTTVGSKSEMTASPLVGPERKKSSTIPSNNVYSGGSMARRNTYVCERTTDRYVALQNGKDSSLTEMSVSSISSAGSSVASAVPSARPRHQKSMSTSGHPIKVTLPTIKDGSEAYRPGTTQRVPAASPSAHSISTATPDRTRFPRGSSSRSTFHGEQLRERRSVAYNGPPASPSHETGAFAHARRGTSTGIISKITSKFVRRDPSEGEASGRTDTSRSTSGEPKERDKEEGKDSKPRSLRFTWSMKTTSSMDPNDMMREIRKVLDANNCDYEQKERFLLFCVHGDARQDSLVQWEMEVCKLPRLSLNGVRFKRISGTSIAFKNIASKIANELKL
T31 sequence (O95835 whole entry): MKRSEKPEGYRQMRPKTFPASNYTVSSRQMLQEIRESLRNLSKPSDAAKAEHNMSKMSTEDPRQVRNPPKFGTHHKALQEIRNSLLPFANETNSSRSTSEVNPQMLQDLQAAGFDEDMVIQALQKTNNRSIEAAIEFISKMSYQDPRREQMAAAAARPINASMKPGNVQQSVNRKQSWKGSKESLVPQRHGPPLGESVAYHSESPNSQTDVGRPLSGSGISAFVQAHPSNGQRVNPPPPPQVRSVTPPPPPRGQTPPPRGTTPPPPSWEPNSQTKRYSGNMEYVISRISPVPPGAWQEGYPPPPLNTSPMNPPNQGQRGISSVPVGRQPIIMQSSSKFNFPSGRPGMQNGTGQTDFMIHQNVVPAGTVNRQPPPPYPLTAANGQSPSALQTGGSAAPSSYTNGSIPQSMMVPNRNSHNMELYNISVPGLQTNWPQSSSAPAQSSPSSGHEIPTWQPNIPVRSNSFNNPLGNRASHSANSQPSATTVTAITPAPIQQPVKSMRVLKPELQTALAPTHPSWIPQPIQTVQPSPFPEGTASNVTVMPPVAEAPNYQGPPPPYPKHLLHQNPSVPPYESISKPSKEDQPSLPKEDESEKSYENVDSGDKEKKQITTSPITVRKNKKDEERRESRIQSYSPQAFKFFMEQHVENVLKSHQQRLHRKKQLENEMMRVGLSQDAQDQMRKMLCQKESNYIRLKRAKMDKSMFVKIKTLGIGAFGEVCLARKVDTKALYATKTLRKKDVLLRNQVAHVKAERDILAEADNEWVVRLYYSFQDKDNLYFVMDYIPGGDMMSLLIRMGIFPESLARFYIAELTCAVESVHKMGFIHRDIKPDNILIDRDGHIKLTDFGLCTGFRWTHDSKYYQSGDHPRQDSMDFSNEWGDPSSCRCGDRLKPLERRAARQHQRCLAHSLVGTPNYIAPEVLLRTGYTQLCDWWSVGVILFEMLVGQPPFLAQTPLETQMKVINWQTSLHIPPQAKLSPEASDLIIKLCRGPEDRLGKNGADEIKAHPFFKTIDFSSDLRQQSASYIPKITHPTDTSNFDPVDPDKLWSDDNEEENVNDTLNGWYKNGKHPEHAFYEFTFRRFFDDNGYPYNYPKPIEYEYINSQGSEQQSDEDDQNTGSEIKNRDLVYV
T27 sequence (P42336 whole entry Q546K): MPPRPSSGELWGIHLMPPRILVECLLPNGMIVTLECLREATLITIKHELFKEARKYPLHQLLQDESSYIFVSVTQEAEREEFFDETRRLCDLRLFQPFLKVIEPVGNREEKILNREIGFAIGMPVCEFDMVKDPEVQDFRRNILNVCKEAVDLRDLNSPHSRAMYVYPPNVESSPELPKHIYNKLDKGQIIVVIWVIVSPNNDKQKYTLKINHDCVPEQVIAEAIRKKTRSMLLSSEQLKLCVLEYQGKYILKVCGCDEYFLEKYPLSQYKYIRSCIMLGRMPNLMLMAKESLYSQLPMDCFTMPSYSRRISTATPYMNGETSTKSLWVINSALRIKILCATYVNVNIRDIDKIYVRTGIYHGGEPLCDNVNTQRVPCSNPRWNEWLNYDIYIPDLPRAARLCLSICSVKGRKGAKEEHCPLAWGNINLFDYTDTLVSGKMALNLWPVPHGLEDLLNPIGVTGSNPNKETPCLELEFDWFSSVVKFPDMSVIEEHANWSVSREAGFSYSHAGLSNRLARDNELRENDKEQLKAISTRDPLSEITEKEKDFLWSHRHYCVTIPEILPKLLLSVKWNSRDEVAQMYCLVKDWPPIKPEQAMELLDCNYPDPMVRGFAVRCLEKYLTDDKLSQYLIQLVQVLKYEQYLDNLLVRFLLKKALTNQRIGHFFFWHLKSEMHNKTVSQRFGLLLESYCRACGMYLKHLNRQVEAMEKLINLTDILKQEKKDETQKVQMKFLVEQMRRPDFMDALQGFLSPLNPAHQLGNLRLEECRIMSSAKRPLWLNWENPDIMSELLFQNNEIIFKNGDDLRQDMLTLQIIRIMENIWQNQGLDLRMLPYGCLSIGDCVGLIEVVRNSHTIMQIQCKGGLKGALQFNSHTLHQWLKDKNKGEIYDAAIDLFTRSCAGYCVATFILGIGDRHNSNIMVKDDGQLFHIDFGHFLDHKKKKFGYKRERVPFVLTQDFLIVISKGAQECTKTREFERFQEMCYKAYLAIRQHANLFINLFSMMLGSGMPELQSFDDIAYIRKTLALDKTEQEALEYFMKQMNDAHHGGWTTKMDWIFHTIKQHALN
T38 sequence (P29597 871-1187 limits assumed): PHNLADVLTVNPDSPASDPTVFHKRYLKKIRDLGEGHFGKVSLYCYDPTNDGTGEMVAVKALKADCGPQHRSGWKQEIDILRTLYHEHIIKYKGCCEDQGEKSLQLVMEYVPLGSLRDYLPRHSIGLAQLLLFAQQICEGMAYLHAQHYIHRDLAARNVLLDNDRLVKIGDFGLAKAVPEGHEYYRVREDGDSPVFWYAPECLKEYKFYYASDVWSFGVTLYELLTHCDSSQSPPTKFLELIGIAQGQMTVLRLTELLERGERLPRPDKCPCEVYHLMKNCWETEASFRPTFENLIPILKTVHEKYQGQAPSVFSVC

In the case of `Brc1ccc2nccc(Nc3ccc4cn[nH]c4c3)c2c1` [Compound 35, 6-Bromo-N-(1H-indazol-6-yl)quinolin-4-amine], the activity at 1 µM (PIK3CD) is reported as 100%, the activity at 1 µM (HIPK3) is reported as 87% and the activity at 1 µM [1] is reported as 77%. It also gave an activity at 1 µM [2] of 100%, an activity at 1 µM (PRKD3) of 100% and an activity at 1 µM (CAMK2G) of 100%. The activity at 1 µM (PRKCQ) was 88%, the activity at 1 µM (TAOK3) was 97% and the activity at 1 µM (EGFR(G719S)) was 97%. The activity at 1 µM (TESK1) was 100%, the activity at 1 µM (MARK1) was 100% and the activity at 1 µM (PYK2) was 100%. For the same compound, the activity at 1 µM (MYO3A) was 100%, the activity at 1 µM (RET(V804L)) was 97% and the activity at 1 µM (PCTK1) was 98%. The activity at 1 µM (FLT3(D835H)) was 94%, the activity at 1 µM (ULK3) was 81% and the activity at 1 µM (ALK(C1156Y)) was 64%. The activity at 1 µM (RIPK4) was 100%, the activity at 1 µM (PAK4) was 100% and the activity at 1 µM (CSF1R) was 95%. For the same compound, the activity at 1 µM (BRSK2) was 100%, the activity at 1 µM (HCK) was 100% and the activity at 1 µM (YANK3) was 100%. It also gave an activity at 1 µM (CAMKK1) of 100%, an activity at 1 µM (CDK3) of 96% and an activity at 1 µM (PIK3CA(Q546K)) of 100%. The activity at 1 µM (DDR2) was 100%, the activity at 1 µM [3] was 57% and the activity at 1 µM (MINK) was 100%. The activity at 1 µM (LATS1) was 100%, the activity at 1 µM (PIK3CG) was 100% and the activity at 1 µM (NIM1) was 88%. It also gave an activity at 1 µM (EPHA3) of 100%, an activity at 1 µM (YES) of 100% and an activity at 1 µM (LATS2) of 88%. The activity at 1 µM (SYK) was 89%, the activity at 1 µM [4] was 100% and the activity at 1 µM (MEK1) was 71%. It also gave an activity at 1 µM (ERBB2) of 100% and an activity at 1 µM (MEK6) of 100%.
